Assay results reported in ChEMBL document CHEMBL4613261, “Metabolic and Pharmaceutical Aspects of Fluorinated Compounds” (J Med Chem, 2020).

Assays:
[1] = Photodegradation of compound in deionized H20 at 10 uM by HPLC analysis; format: physicochemical; details: deionized water
[2] = Half life in rat at 10 mg/kg, iv; format: ADME, organism-based; details: in vivo
[3] = Drug metabolism in human; format: ADME; details: read-out: Drug metabolism
[4] = Half life in human at 0.25 mg, iv administered as single dose measured up to 168 hrs; format: ADME, organism-based; details: in vivo
[5] = Oral bioavailability in human at 2 mg administered as single dose and measured up to 168 hrs; format: ADME, organism-based; details: in vivo
[6] = Volume of distribution in human at 0.25 mg, iv administered as single dose measured up to 168 hrs; format: ADME, organism-based; details: in vivo
[7] = Drug metabolism assessed as first order rate constant for 6-formyltryptophan formation; format: physicochemical
[8] = target: T1, Alanine racemase, biosynthetic (Escherichia coli K-12, UniProt P0A6B4); experiment: Substrate activity at Escherichia coli B alanine racemase assessed as (S)-6-amino-2-((E)-1-carboxy-1-((E)-(3-hydroxy-2-methyl-5-(phosphonooxymethyl)pyridin-4-yl)methyleneamino)prop-1-en-2-ylamino)hexanoic acid formation; format: ADME
[9] = target: T1, Alanine racemase, biosynthetic; experiment: Substrate activity at Escherichia coli B alanine racemase assessed as (2S)-6-amino-2-(((Z)-1-carboxyallylideneamino)(3-hydroxy-2-methyl-5-(phosphonooxymethyl)pyridin-4-yl)methylamino)hexanoic acid adduct formation; format: ADME
[10] = target: T1, Alanine racemase, biosynthetic; experiment: Substrate activity at Escherichia coli B alanine racemase assessed as 2-oxobut-3-enoic acid formation; format: ADME
[11] = Drug degradation assessed as 4-[[9-[(2-fluoro-4-pyridyl)methyl]-10-oxo-9-anthryl]methyl]-1H-pyridin-2-one metabolite formation by measuring relative abundance measured after preserving compound for 6 months at 40 degreeC by LC-MS/MS analysis; format: physicochemical; details: 4383 h
[12] = Drug degradation in presence of 1% magnesium stearate and lactose monohydrate measured after preserving compound for 1 to 3 months at 40 degreeC by LC-MS/MS analysis; format: physicochemical; details: read-out: Drug degradation
[13] = Prodrug conversion in Sprague-Dawley rat assessed as acyclovir recovery in urine at 0.1 mmol/kg, po measured over 48 hrs by HPLC analysis; format: ADME, organism-based; details: in vivo
[14] = Elimination half life in human at 25 to 1200 mg, po administered as suspension measured after 5 to 816 hrs by HPLC-MS/MS analysis; format: ADME, organism-based; details: in vivo, read-out: beta t1/2
[15] = Volume of distribution at steady state in Sprague-Dawley rat at 0.5 mg/kg, iv administered as single dose measured after 0.083 to 48 hrs; format: ADME, organism-based; details: in vivo, read-out: Vdss
[16] = Lipophilicity, logD of the compound; format: physicochemical; details: octanol/water
[17] = Drug recovery in bile duct-cannulated Sprague-Dawley rat feces at 10 mg/kg, po administered as single dose using 14C labelled compound measured after 48 hrs; format: ADME, organism-based; details: in vivo
[18] = Drug recovery in bile duct-cannulated rhesus monkey feces at 10 mg/kg, po administered as single dose using 14C labelled compound measured after 96 hrs; format: ADME, organism-based, Macaca mulatta; details: in vivo
[19] = Volume of distribution at steady state in rhesus monkey at 0.1 mg/kg, iv administered as single dose measured after 0.083 to 48 hrs; format: ADME, organism-based, Macaca mulatta; details: in vivo, read-out: Vdss

T1 sequence (P0A6B4 whole entry): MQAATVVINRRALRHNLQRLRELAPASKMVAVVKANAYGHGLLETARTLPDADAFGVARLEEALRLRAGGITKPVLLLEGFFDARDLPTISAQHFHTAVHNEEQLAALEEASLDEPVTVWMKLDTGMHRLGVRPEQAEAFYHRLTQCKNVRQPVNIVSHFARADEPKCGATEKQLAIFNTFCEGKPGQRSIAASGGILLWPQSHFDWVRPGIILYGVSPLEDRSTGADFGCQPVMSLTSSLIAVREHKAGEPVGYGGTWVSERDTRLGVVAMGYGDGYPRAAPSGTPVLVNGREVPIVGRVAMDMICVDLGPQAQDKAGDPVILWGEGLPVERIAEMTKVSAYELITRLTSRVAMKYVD

CNCCC(Oc1ccc(C(F)(F)F)cc1)c1ccccc1 (centres undefined) [FLUOXETINE]
half-life at 10 µM [1]: 55.2 h

CCNC(C)Cc1cccc(SC(F)(F)F)c1 (racemic) [TIFLOREX]
half-life [2]: 7.4 h

FCOC(C(F)(F)F)C(F)(F)F [SEVOFLURANE]
metabolised [3]: 2 to 5%

C[C@@H]1C[C@H]2[C@@H]3C[C@H](F)C4=CC(=O)C=C[C@]4(C)[C@@]3(F)[C@@H](O)C[C@]2(C)[C@@]1(OC(=O)c1ccco1)C(=O)SCF [FLUTICASONE FUROATE]
half-life [4]: 15.3 h | bioavailability [5]: 1.6% | Vd [6]: 642 L

N[C@@H](Cc1c[nH]c2cc(C(F)F)ccc12)C(=O)O
K [7]: 0.0039 min⁻¹

C=C=C(/N=C/c1c(COP(=O)(O)O)cnc(C)c1O)C(=O)O
Activity [8]: 12% | Activity [9]: 31% | Activity [10]: 57%

O=C1c2ccccc2C(Cc2ccnc(F)c2)(Cc2ccnc(F)c2)c2ccccc21
Activity [11]: 0.5% | degraded [12]: < 0.1%

CC(C)C(=O)OCCOCn1cnc2c(F)nc(N)nc21
Drug recovery [13]: 51%

Cc1cc(Nc2ccc(S(F)(F)(F)(F)F)cc2)n2nc(C(C)(F)F)nc2n1 [DSM-265]
half-life [14]: 86 to 118 h

COc1cc(F)c(C(C)C)cc1-c1ccc(C(F)(F)F)cc1CN1C(=O)O[C@H](c2cc(C(F)(F)F)cc(C(F)(F)F)c2)[C@@H]1C [ANACETRAPIB]
Vd [15]: 1.1 L/kg | logD [16]: 7.1 | Drug recovery [17]: 80% | Drug recovery [18]: 90% | Vd [19]: 0.3 L/kg
